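Assay format: 96-well plates, 48-hour exposure. Abbreviation: GI50, concentration required for 50% inhibition of growth.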 Calls of active or inactive are those of the source. Cut-off read from the data, not from the text of the source: active = GI50 up to about 1.1 µM and inactive = higher.
How the values were obtained:
Experiment in all cases: NCI anticancer screen, dose series, 48 h
[1] = tested on: UACC-257
[2] = tested on: HCT-116
[3] = tested on: HOP-92
[4] = tested on: SK-MEL-2
[5] = tested on: Malme-3M
[6] = tested on: RPMI-8226
[7] = tested on: OVCAR-5
[8] = tested on: BT-549
[9] = tested on: ACHN
[10] = tested on: KM12
[11] = tested on: HCC 2998
[12] = tested on: OVCAR-8
[13] = tested on: UO-31
[14] = tested on: SNB-75
[15] = tested on: PC-3
[16] = tested on: CCRF-CEM
[17] = tested on: RXF 393
[18] = tested on: SW-620
[19] = tested on: COLO 205

| Compound | GI50 [1] | GI50 [2] | GI50 [3] | GI50 [4] | GI50 [5] | GI50 [6] | GI50 [7] | GI50 [8] | GI50 [9] | GI50 [10] | GI50 [11] | GI50 [12] | GI50 [13] | GI50 [14] | GI50 [15] | GI50 [16] | GI50 [17] | GI50 [18] | GI50 [19] |
| --- | --- | --- | --- | --- | --- | --- | --- | --- | --- | --- | --- | --- | --- | --- | --- | --- | --- | --- | --- |
| COC[C@H]1C(=O)NCC(=O)N2N=CCC[C@H]2C(=O)N(O)[C@H](C)C(=O)O[C@@H](C(C)C)[C@H](NC(=O)[C@@](C)(O)[C@]2(O)CC[C@@H](CC(C)C)[C@H](C)O2)C(=O)N2NCCC[C@@H]2C(=O)N1O | 0.0184 µM (active) | 0.0134 µM (active) | 0.0174 µM (active) | 0.0164 µM (active) | 0.0171 µM (active) | 0.0208 µM (active) | 0.0178 µM (active) | 0.0166 µM (active) | 0.0324 µM (active) | 0.0134 µM (active) | 0.0169 µM (active) | 0.0185 µM (active) | 0.169 µM (active) | < 0.0109 µM (active) | 0.0175 µM (active) | 0.0216 µM (active) | 0.0172 µM (active) | 0.0157 µM (active) | 0.0175 µM (active) |
| CCN1CC2(C)CCC(OC)C34C5CC6CCC(O)(C5C(=O)O6)C(C(O)C23)C14 (configuration not stated) | > 100 µM (inactive) | > 100 µM (inactive) | > 100 µM (inactive) | > 100 µM (inactive) | > 100 µM (inactive) | > 100 µM (inactive) | > 100 µM (inactive) | > 100 µM (inactive) | > 100 µM (inactive) | > 100 µM (inactive) | > 10 µM (inactive) | > 100 µM (inactive) | > 100 µM (inactive) | > 100 µM (inactive) | > 100 µM (inactive) | > 100 µM (inactive) | > 100 µM (inactive) | > 100 µM (inactive) | > 100 µM (inactive) |
| Cc1cc(C)c(NC(=S)NC(=O)c2ccccc2)cc1C | 84.7 µM (inactive) | > 100 µM (inactive) | > 100 µM (inactive) | > 100 µM (inactive) | > 100 µM (inactive) | > 100 µM (inactive) | > 100 µM (inactive) | > 100 µM (inactive) | > 100 µM (inactive) | > 100 µM (inactive) | > 100 µM (inactive) | > 100 µM (inactive) | > 100 µM (inactive) | > 100 µM (inactive) | 67.3 µM (inactive) | > 100 µM (inactive) | > 100 µM (inactive) | > 100 µM (inactive) | > 100 µM (inactive) |
| COC(=O)[C@@]12C(=O)C(C)C(=O)[C@]1(C)C(C)=C[C@H]1[C@]3(C=O)CC[C@H](OC(C)=O)C(C)(C)[C@H]3CC[C@@]12C (some centres not stated) | > 100 µM (inactive) | > 100 µM (inactive) | > 100 µM (inactive) | > 100 µM (inactive) | > 100 µM (inactive) | 75.2 µM (inactive) | > 100 µM (inactive) | > 100 µM (inactive) | > 100 µM (inactive) | > 100 µM (inactive) | > 100 µM (inactive) | > 100 µM (inactive) | > 100 µM (inactive) | > 100 µM (inactive) | > 100 µM (inactive) | 4.06 µM (inactive) | > 100 µM (inactive) | > 100 µM (inactive) | > 100 µM (inactive) |
| CC(=O)C(CN1CCOCC1)C(c1ccccc1)c1c(O)c2ccccc2oc1=O (configuration not stated) | > 100 µM (inactive) | > 100 µM (inactive) | 32 µM (inactive) | > 100 µM (inactive) | 80.9 µM (inactive) | 43.1 µM (inactive) | > 100 µM (inactive) | > 100 µM (inactive) | > 100 µM (inactive) | > 100 µM (inactive) | > 100 µM (inactive) | > 100 µM (inactive) | > 100 µM (inactive) | > 100 µM (inactive) | > 100 µM (inactive) | > 100 µM (inactive) | 31.6 µM (inactive) | > 100 µM (inactive) | > 100 µM (inactive) |
| COc1cc(/C=C2\C[C@H]3[C@@H]4CC=C5C[C@@H](N6CCCC6)CC[C@]5(C)[C@H]4CC[C@]3(C)[C@H]2OC(C)=O)cc(OC)c1OC | 19.6 µM (inactive) | 15.5 µM (inactive) | 10.3 µM (inactive) | 17.7 µM (inactive) | 21.5 µM (inactive) | 5.27 µM (inactive) | 15.8 µM (inactive) | 14.9 µM (inactive) | 18.9 µM (inactive) | 15.1 µM (inactive) | 2.38 µM (inactive) | 15 µM (inactive) | 15 µM (inactive) | 15.4 µM (inactive) | 14.2 µM (inactive) | 12.9 µM (inactive) | 11.5 µM (inactive) | 14.8 µM (inactive) | 12.9 µM (inactive) |
| CC1(C)C(CBr)=[N+]([O-])C(C)(C)N1O | 8.99 µM (inactive) | 2.12 µM (inactive) | 2.27 µM (inactive) | > 9.29 µM (inactive) | 2.49 µM (inactive) | > 5.05 µM (inactive) | > 10 µM (inactive) | 2.64 µM (inactive) | 3.68 µM (inactive) | > 10 µM (inactive) | > 10 µM (inactive) | > 6.97 µM (inactive) | > 10 µM (inactive) | 3.17 µM (inactive) | > 10 µM (inactive) | 0.604 µM (active) | 3.31 µM (inactive) | 2.25 µM (inactive) | 1.83 µM (inactive) |
| C=C(C)[C@@H](O)[C@H](O)C[C@H](C)C1CC[C@]2(C)C1=CC[C@@H]1[C@@]3(C)CC[C@@H](OC(C)=O)C(C)(C)[C@@H]3C[C@@H](OC3OC(COC(C)=O)C(O)C(O)C3O)[C@]12C (some centres not stated) | 2.89 µM (inactive) | 2.27 µM (inactive) | 2.37 µM (inactive) | 1.77 µM (inactive) | 2.06 µM (inactive) | 2.01 µM (inactive) | 1.87 µM (inactive) | 3.33 µM (inactive) | 2.44 µM (inactive) | 1.6 µM (inactive) | 0.354 µM (active) | 4.04 µM (inactive) | 3.48 µM (inactive) | 2.45 µM (inactive) | 2.31 µM (inactive) | 2.29 µM (inactive) | 1.98 µM (inactive) | 3.34 µM (inactive) | 1.93 µM (inactive) |
| CC(C)NC(=O)OCc1c(COC(=O)NC(C)C)c(-c2ccc[n+](COC(=O)C(C)(C)C)c2)n2c1CCC2 | > 100 µM (inactive) | > 91.6 µM (inactive) | > 91.6 µM (inactive) | > 73.6 µM (inactive) | > 100 µM (inactive) | > 100 µM (inactive) | > 100 µM (inactive) | > 100 µM (inactive) | 38.8 µM (inactive) | > 100 µM (inactive) | > 100 µM (inactive) | > 76.6 µM (inactive) | 64.7 µM (inactive) | > 89.1 µM (inactive) | > 86.7 µM (inactive) | 24.9 µM (inactive) | 30.5 µM (inactive) | > 100 µM (inactive) | > 93.5 µM (inactive) |
| C=Cc1c(C)c2cc3nc(c4c5[nH]c(cc6nc(cc1[nH]2)C(C)=C6CC)c(C)c5C(=O)C4C(=O)OC)C(CCC(=O)OC)C3C (configuration not stated) | > 100 µM (inactive) | > 100 µM (inactive) | > 100 µM (inactive) | > 100 µM (inactive) | > 100 µM (inactive) | > 100 µM (inactive) | > 100 µM (inactive) | > 100 µM (inactive) | > 100 µM (inactive) | > 100 µM (inactive) | 59.7 µM (inactive) | > 100 µM (inactive) | > 100 µM (inactive) | > 100 µM (inactive) | > 100 µM (inactive) | > 100 µM (inactive) | > 100 µM (inactive) | > 100 µM (inactive) | > 100 µM (inactive) |
| CCOc1cc2c(cc1O)CC[C@@H]1[C@@H]2CC[C@]2(C)C(OS(=O)OC3CC[C@@H]4[C@H]5CCc6cc(O)c(OCC)cc6[C@@H]5CC[C@@]34C)CC[C@@H]12 (some centres not stated) | 2.24 µM (inactive) | 0.577 µM (active) | 0.363 µM (active) | 0.92 µM (active) | 0.168 µM (active) | 1.63 µM (inactive) | 21.4 µM (inactive) | 1.81 µM (inactive) | 1.88 µM (inactive) | 4.59 µM (inactive) | 16 µM (inactive) | 1.38 µM (inactive) | 5.48 µM (inactive) | 0.51 µM (active) | 3.94 µM (inactive) | 0.466 µM (active) | 1.29 µM (inactive) | 0.355 µM (active) | 23.1 µM (inactive) |
| CC(=O)C(C(c1ccccc1)N1CCOCC1)N1CCOCC1 (configuration not stated) | 18.5 µM (inactive) | > 100 µM (inactive) | > 100 µM (inactive) | > 100 µM (inactive) | > 100 µM (inactive) | > 100 µM (inactive) | > 100 µM (inactive) | > 100 µM (inactive) | > 100 µM (inactive) | > 100 µM (inactive) | 20.3 µM (inactive) | > 100 µM (inactive) | > 100 µM (inactive) | > 100 µM (inactive) | > 100 µM (inactive) | 16.9 µM (inactive) | > 100 µM (inactive) | > 100 µM (inactive) | > 100 µM (inactive) |
| COc1ccc2[nH]c3c(c2c1)CC(=S)N1CCCC(CC3=O)C1 (configuration not stated) | 44.9 µM (inactive) | 29.4 µM (inactive) | > 100 µM (inactive) | 29.3 µM (inactive) | 43.3 µM (inactive) | 64.9 µM (inactive) | 64.9 µM (inactive) | > 100 µM (inactive) | 38.8 µM (inactive) | 25.4 µM (inactive) | 35.6 µM (inactive) | 93.3 µM (inactive) | 63.8 µM (inactive) | 52.4 µM (inactive) | 37.2 µM (inactive) | 50.2 µM (inactive) | 20.7 µM (inactive) | 52.7 µM (inactive) | 31.3 µM (inactive) |
